These compounds were tested against T1, PD-L1 (Homo sapiens, UniProt Q9NZQ7) (assay: PD-L1 quantification by flow cytometry in A-549). Conditions: A-549, 10 μM, 24 h, referred to control (DMSO).
Format: cell-based
Parameters: endogenous in cells; host or cells: A-549 cancer cells
Description: (§1) We evaluated the effect of the selected compounds on PD-L1 and on c-Myc proteins by flow cytometry after 24 h treatment at 10 μM concentration of compounds. Both, PD-L1 and c-Myc were relatively determined using DMSO treated cells as a negative control and BMS-8 as a positive one.
(§2) For the detection of total PD-L1 and c-Myc, cancer cells were seeded (3 × 10^5 cells/well) in 6-well plates and were incubated with the corresponding compounds for 24 h. Then they were collected, fixed, treated with 0.5% Triton^TM X-100 and stained with Alexa Fluor® 647 Rabbit monoclonal Anti-PD-L1 (ab215251) and FITC Rabbit monoclonal anti-c-Myc (ab223913).
(§3) We also checked results performing ELISA tests. For ELISA tests, lysates were collected, protein quantification was carried out by Bradford test and, then, PD-L1 and c-Myc were quantified using Human PD-L1 ELISA Kit 28-8 (ab214565) and c-Myc (Total) Human ELISA Kit (KHO2041), respectively, according to the manufacturer’s instructions.

T1 sequence (Q9NZQ7 19-290): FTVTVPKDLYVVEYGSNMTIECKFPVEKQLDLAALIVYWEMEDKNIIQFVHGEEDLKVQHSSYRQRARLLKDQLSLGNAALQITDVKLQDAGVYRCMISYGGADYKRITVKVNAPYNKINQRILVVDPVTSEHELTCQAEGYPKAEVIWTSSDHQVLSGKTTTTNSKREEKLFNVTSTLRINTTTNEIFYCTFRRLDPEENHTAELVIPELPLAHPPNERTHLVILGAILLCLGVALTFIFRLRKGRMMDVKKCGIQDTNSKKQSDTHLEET

Structure (SMILES) | PD-L1 (%) relative expression [%]
COc1ccc(CCc2cccc(NC(=O)Nc3cccc(OC)c3)c2)cc1 [Compound 32] | 59 ± 9
COc1ccc(/C=C\c2cccc(NC(=O)Nc3ccc(OC)cc3)c2)cc1 [Compound 19] | 98 ± 10
COc1ccc(/C=C/c2cccc(NC(=O)Nc3cccc(OC)c3)c2)cc1 [Compound 25] | 59 ± 8

What follows are compounds tested against T2, VEGFR-2 (Homo sapiens, UniProt P35968) (assay: VEGFR-2 quantification by flow cytometry in HMEC-1). Conditions: 10 µM, 24 h, relative to DMSO control.
T2 sequence (P35968 20-1356): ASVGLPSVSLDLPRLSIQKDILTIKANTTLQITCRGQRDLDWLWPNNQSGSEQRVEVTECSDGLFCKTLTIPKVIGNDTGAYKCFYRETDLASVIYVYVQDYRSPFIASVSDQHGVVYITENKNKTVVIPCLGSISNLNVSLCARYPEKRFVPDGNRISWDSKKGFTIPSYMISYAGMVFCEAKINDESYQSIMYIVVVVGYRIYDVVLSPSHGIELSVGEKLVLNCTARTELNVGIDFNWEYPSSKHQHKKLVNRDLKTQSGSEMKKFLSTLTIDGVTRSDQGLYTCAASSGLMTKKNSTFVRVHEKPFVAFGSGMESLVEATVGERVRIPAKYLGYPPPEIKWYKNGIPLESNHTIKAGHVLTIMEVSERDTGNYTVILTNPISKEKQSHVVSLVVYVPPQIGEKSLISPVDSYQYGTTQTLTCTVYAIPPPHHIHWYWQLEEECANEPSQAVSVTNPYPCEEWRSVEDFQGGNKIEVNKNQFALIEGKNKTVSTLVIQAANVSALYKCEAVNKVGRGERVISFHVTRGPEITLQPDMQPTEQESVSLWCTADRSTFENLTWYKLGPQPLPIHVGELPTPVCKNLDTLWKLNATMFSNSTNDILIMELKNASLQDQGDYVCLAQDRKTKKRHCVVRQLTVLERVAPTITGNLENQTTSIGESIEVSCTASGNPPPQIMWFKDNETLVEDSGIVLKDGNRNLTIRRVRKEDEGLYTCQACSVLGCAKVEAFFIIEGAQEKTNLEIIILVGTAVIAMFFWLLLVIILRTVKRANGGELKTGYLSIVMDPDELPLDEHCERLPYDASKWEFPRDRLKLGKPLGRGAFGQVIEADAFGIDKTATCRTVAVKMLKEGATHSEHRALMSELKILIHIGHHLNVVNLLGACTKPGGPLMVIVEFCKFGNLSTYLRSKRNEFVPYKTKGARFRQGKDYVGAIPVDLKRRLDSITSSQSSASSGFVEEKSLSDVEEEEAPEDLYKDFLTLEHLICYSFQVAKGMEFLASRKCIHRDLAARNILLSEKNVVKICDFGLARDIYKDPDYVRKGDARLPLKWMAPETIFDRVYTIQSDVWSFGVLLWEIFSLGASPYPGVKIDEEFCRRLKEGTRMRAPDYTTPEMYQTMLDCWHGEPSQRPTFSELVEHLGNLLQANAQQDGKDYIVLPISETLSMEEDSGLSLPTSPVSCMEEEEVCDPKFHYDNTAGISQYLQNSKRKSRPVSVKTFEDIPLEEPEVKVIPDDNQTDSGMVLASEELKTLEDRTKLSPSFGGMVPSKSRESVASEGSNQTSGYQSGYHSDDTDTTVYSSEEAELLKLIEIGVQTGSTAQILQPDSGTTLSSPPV
Format: cell-based
Parameters: Both membrane and total VEGFR-2 were relatively determined using dimethyl sulfoxide (DMSO) treated cells as a negative control; endogenous in cells; host or cells: HMEC-1 (human microvascular endothelial cells)
Description: (§7) We performed the study on both a HT-29 cancer cell line and a human microvessel endothelial cell line (HMEC-1). […] The effect of these selected derivatives on VEGFR-2, on HT-29 tumor cell line and on human microvessel endothelial cells (HMEC) was determined by flow cytometry technique. […] For these assays, cells were incubated for 24 h in the presence of the corresponding compounds at 10 µM concentration.

Structure (SMILES) | Membrane VEGFR-2 (%) | Total VEGFR-2 (%)
COc1ccc(CCc2cccc(NC(=O)Nc3cccc(OC)c3)c2)cc1 [Compound 32] | 69 ± 8 | 98 ± 13
COc1ccc(/C=C\c2cccc(NC(=O)Nc3ccc(OC)cc3)c2)cc1 [Compound 19] | 98 ± 8 | 99 ± 16
COc1ccc(/C=C/c2cccc(NC(=O)Nc3cccc(OC)c3)c2)cc1 [Compound 25] | 59 ± 8 | 96 ± 9

Each compound was assayed on HMEC-1 (human microvascular endothelial cells) (assay: Cell proliferation assay (MTT)). Conditions: HMEC-1, 48 h, 2 days incubation, average ± SD of three experiments.
Format: cell-based
Excerpt: (§4) The ability of Ureas 13–33 to inhibit cell proliferation was established by means of their IC50 values towards the human tumor cell lines HT-29 (colon adenocarcinoma), MCF-7 (breast adenocarcinoma), HeLa (epithelioid cervix carcinoma) and A549 (pulmonary adenocarcinoma), as well as towards the endothelial cell line HMEC-1 (human microvascular endothelial cells) and the non-tumor cell line HEK-293 (human embryonic kidney cells).
(§5) HT-29, MCF-7, HeLa, A549 and HEK-293 cell lines were maintained in Dulbecco’s modified Eagle’s medium (DMEM) containing glucose (1 g/L), glutamine (2 mM), penicillin (50 μg/mL), streptomycin (50 μg/mL), and amphotericin B (1.25 μg/mL), supplemented with 10% FBS. HMEC-1 cell line was maintained in Dulbecco’s modified Eagle’s medium (DMEM)/low glucose containing glutamine (2 mM), penicillin (50 μg/mL), streptomycin (50 μg/mL), and amphotericin B (1.25 μg/mL), supplemented with 10% FBS. For the development of tube formation assays in Matrigel, HMEC-1 cells were cultured in EGM-2MV Medium supplemented with EGM-2MV SingleQuots.
(§6) In 96-well plates, 3 × 10^3 (HeLa, A549, HMEC-1, HEK-293) or 5 × 10^3 (HT-29, MCF-7) cells per well were incubated with serial dilutions of the tested compounds in a total volume of 100 μL of their respective growth media. The 3-(4,5-dimethylthiazol-2-yl)-2,5-diphenyltetrazolium bromide (MTT; Sigma Chemical Co.) dye reduction assay in 96-well microplates was used. After 2 days of incubation (37 °C, 5% CO2 in a humid atmosphere), 10 μL of MTT (5 mg/mL in phosphate-buffered saline, PBS) was added to each well, and the plate was incubated for a further 3 h (37 °C). After that, the supernatant was discarded and replaced by 100 µL of DMSO to dissolve formazan crystals. The absorbance was then read at 540 nm by spectrophotometry. For all concentrations of compound, cell viability was expressed as the percentage of the ratio between the mean absorbance of treated cells and the mean absorbance of untreated cells. Three independent experiments were performed, and the IC50 values (i.e., concentration half inhibiting cell proliferation) were graphically determined using GraphPad Prism 4 software.

Structure (SMILES) | IC50 [µM]
COc1ccc(CCc2cccc(NC(=O)Nc3ccc(Br)cc3)c2)cc1 [Compound 30] | 1.3 ± 0.1
COc1ccc(/C=C/c2cccc(NC(=O)Nc3cccc(Br)c3)c2)cc1 [Compound 22] | 1.1 ± 0.2
COc1ccc(/C=C/c2cccc(NC(=O)Nc3ccccc3Br)c2)cc1 [Compound 21] | 1.9 ± 0.4
COc1ccc(/C=C\c2cccc(NC(=O)Nc3cccc(OC)c3)c2)cc1 [Compound 18] | 4.3 ± 0.3
COc1ccc(CCc2cccc(NC(=O)Nc3cccc(OC)c3)c2)cc1 [Compound 32] | 7.1 ± 0.8
COc1ccc(/C=C\c2cccc(NC(=O)Nc3ccc(OC)cc3)c2)cc1 [Compound 19] | 11 ± 1
COc1ccc(/C=C/c2cccc(NC(=O)Nc3cccc(OC)c3)c2)cc1 [Compound 25] | 4.3 ± 0.4

These compounds were tested on A549 (pulmonary adenocarcinoma) (assay: Cell proliferation assay (MTT)). Conditions: Homo sapiens, A549, 48 h, 2 days incubation, average ± SD of three experiments.
Format: cell-based
Excerpt: as §4, §5, §6

Structure (SMILES) | IC50 [µM]
COc1ccc(CCc2cccc(NC(=O)Nc3ccc(Br)cc3)c2)cc1 [Compound 30] | 11 ± 5
COc1ccc(/C=C/c2cccc(NC(=O)Nc3cccc(Br)c3)c2)cc1 [Compound 22] | 4 ± 3
COc1ccc(/C=C/c2cccc(NC(=O)Nc3ccccc3Br)c2)cc1 [Compound 21] | 3 ± 1
COc1ccc(/C=C\c2cccc(NC(=O)Nc3cccc(OC)c3)c2)cc1 [Compound 18] | 23 ± 8
COc1ccc(CCc2cccc(NC(=O)Nc3cccc(OC)c3)c2)cc1 [Compound 32] | 18 ± 3
COc1ccc(/C=C\c2cccc(NC(=O)Nc3ccc(OC)cc3)c2)cc1 [Compound 19] | 12 ± 2
COc1ccc(/C=C/c2cccc(NC(=O)Nc3cccc(OC)c3)c2)cc1 [Compound 25] | 2.2 ± 0.7

These compounds were tested on HEK-293 (human embryonic kidney cells) (assay: Cell proliferation assay (MTT)). Conditions: HEK293, 48 h, 2 days incubation, average ± SD of three experiments.
Format: cell-based
Excerpt: as §4, §5, §6

Structure (SMILES) | IC50 [µM]
COc1ccc(CCc2cccc(NC(=O)Nc3ccc(Br)cc3)c2)cc1 [Compound 30] | 1.3 ± 0.5
COc1ccc(/C=C/c2cccc(NC(=O)Nc3cccc(Br)c3)c2)cc1 [Compound 22] | 0.7 ± 0.3
COc1ccc(/C=C/c2cccc(NC(=O)Nc3ccccc3Br)c2)cc1 [Compound 21] | 2 ± 0.2
COc1ccc(/C=C\c2cccc(NC(=O)Nc3cccc(OC)c3)c2)cc1 [Compound 18] | 16 ± 3
COc1ccc(CCc2cccc(NC(=O)Nc3cccc(OC)c3)c2)cc1 [Compound 32] | 9.7 ± 0.8
COc1ccc(/C=C\c2cccc(NC(=O)Nc3ccc(OC)cc3)c2)cc1 [Compound 19] | 10 ± 1
COc1ccc(/C=C/c2cccc(NC(=O)Nc3cccc(OC)c3)c2)cc1 [Compound 25] | 4 ± 2

These compounds were tested on HT-29 (colon adenocarcinoma) (assay: Cell proliferation assay (MTT)). Conditions: Homo sapiens, HT-29, 48 h, 2 days incubation, average ± SD of three experiments.
Format: cell-based
Excerpt: as §4, §5, §6

Structure (SMILES) | IC50 [µM]
COc1ccc(CCc2cccc(NC(=O)Nc3ccc(Br)cc3)c2)cc1 [Compound 30] | 4.9 ± 0.8
COc1ccc(/C=C/c2cccc(NC(=O)Nc3cccc(Br)c3)c2)cc1 [Compound 22] | 0.5 ± 0.2
COc1ccc(/C=C/c2cccc(NC(=O)Nc3ccccc3Br)c2)cc1 [Compound 21] | 1.6 ± 0.2
COc1ccc(/C=C\c2cccc(NC(=O)Nc3cccc(OC)c3)c2)cc1 [Compound 18] | 17 ± 4
COc1ccc(CCc2cccc(NC(=O)Nc3cccc(OC)c3)c2)cc1 [Compound 32] | 22 ± 2
COc1ccc(/C=C\c2cccc(NC(=O)Nc3ccc(OC)cc3)c2)cc1 [Compound 19] | 14 ± 3
COc1ccc(/C=C/c2cccc(NC(=O)Nc3cccc(OC)c3)c2)cc1 [Compound 25] | 1.3 ± 0.5

These compounds were tested on MCF-7 (breast adenocarcinoma) (assay: Cell proliferation assay (MTT)). Conditions: Homo sapiens, MCF7, 48 h, 2 days incubation, average ± SD of three experiments.
Format: cell-based
Excerpt: as §4, §5, §6

Structure (SMILES) | IC50 [µM]
COc1ccc(CCc2cccc(NC(=O)Nc3ccc(Br)cc3)c2)cc1 [Compound 30] | 4 ± 2
COc1ccc(/C=C/c2cccc(NC(=O)Nc3cccc(Br)c3)c2)cc1 [Compound 22] | 0.6 ± 0.3
COc1ccc(/C=C/c2cccc(NC(=O)Nc3ccccc3Br)c2)cc1 [Compound 21] | 1.6 ± 0.3
COc1ccc(/C=C\c2cccc(NC(=O)Nc3cccc(OC)c3)c2)cc1 [Compound 18] | 19 ± 2
COc1ccc(CCc2cccc(NC(=O)Nc3cccc(OC)c3)c2)cc1 [Compound 32] | 25 ± 4
COc1ccc(/C=C\c2cccc(NC(=O)Nc3ccc(OC)cc3)c2)cc1 [Compound 19] | 8 ± 3
COc1ccc(/C=C/c2cccc(NC(=O)Nc3cccc(OC)c3)c2)cc1 [Compound 25] | 1.1 ± 0.2

The compounds below were run on HeLa (epithelioid cervix carcinoma) (assay: Cell proliferation assay (MTT)). Conditions: Homo sapiens, 48 h, 2 days incubation, average ± SD of three experiments.
Format: cell-based
Excerpt: as §4, §5, §6

Structure (SMILES) | IC50 [µM]
COc1ccc(CCc2cccc(NC(=O)Nc3ccc(Br)cc3)c2)cc1 [Compound 30] | 3.7 ± 0.3
COc1ccc(/C=C/c2cccc(NC(=O)Nc3cccc(Br)c3)c2)cc1 [Compound 22] | 1.5 ± 0.3
COc1ccc(/C=C/c2cccc(NC(=O)Nc3ccccc3Br)c2)cc1 [Compound 21] | 1.7 ± 0.4
COc1ccc(/C=C\c2cccc(NC(=O)Nc3cccc(OC)c3)c2)cc1 [Compound 18] | 24 ± 5
COc1ccc(CCc2cccc(NC(=O)Nc3cccc(OC)c3)c2)cc1 [Compound 32] | 27 ± 1
COc1ccc(/C=C\c2cccc(NC(=O)Nc3ccc(OC)cc3)c2)cc1 [Compound 19] | 5 ± 2
COc1ccc(/C=C/c2cccc(NC(=O)Nc3cccc(OC)c3)c2)cc1 [Compound 25] | 7 ± 0.5

These compounds were tested against T1, PD-L1 (assay: PD-L1 quantification by flow cytometry in HT-29). Conditions: HT-29, 10 μM, 24 h, referred to control (DMSO).
Format: cell-based
Description: as §1, §2, §3

Structure (SMILES) | PD-L1 (%) relative expression [%]
COc1ccc(CCc2cccc(NC(=O)Nc3cccc(OC)c3)c2)cc1 [Compound 32] | 55 ± 11
COc1ccc(/C=C\c2cccc(NC(=O)Nc3ccc(OC)cc3)c2)cc1 [Compound 19] | 36 ± 9
COc1ccc(/C=C/c2cccc(NC(=O)Nc3cccc(OC)c3)c2)cc1 [Compound 25] | 69 ± 11

These compounds were tested on c-Myc (assay: c-Myc quantification by flow cytometry in A-549). Conditions: A-549, 10 μM, 24 h, referred to control (DMSO).
Format: cell-based, human
Description: as §1, §2, §3

Structure (SMILES) | c-Myc (%) relative expression [%]
COc1ccc(CCc2cccc(NC(=O)Nc3cccc(OC)c3)c2)cc1 [Compound 32] | 77 ± 15
COc1ccc(/C=C\c2cccc(NC(=O)Nc3ccc(OC)cc3)c2)cc1 [Compound 19] | 79 ± 10
COc1ccc(/C=C/c2cccc(NC(=O)Nc3cccc(OC)c3)c2)cc1 [Compound 25] | 68 ± 9

The compounds below were run against T2, VEGFR-2 (assay: VEGFR-2 quantification by flow cytometry in HT-29). Conditions: HT-29, 10 µM, 24 h, relative to DMSO control.
Format: cell-based
Parameters: Both membrane and total VEGFR-2 were relatively determined using dimethyl sulfoxide (DMSO) treated cells as a negative control; endogenous in cells; host or cells: HT-29 (colon adenocarcinoma) and HMEC-1 (human microvascular endothelial cells)
Description: as §7

Structure (SMILES) | Membrane VEGFR-2 (%) | Total VEGFR-2 (%)
COc1ccc(CCc2cccc(NC(=O)Nc3cccc(OC)c3)c2)cc1 [Compound 32] | 76 ± 5 | 93 ± 10
COc1ccc(/C=C\c2cccc(NC(=O)Nc3ccc(OC)cc3)c2)cc1 [Compound 19] | 88 ± 14 | 97 ± 7
COc1ccc(/C=C/c2cccc(NC(=O)Nc3cccc(OC)c3)c2)cc1 [Compound 25] | 99 ± 11 | 94 ± 7

The compounds below were run on c-Myc (assay: c-Myc quantification by flow cytometry in HT-29). Conditions: HT-29, 10 μM, 24 h, referred to control (DMSO).
Format: cell-based, human
Description: as §1, §2, §3

Structure (SMILES) | c-Myc (%) relative expression [%]
COc1ccc(CCc2cccc(NC(=O)Nc3cccc(OC)c3)c2)cc1 [Compound 32] | 69 ± 7
COc1ccc(/C=C\c2cccc(NC(=O)Nc3ccc(OC)cc3)c2)cc1 [Compound 19] | 47 ± 8
COc1ccc(/C=C/c2cccc(NC(=O)Nc3cccc(OC)c3)c2)cc1 [Compound 25] | 74 ± 11
